Measurements as given in ChEMBL document CHEMBL4138108, “Novel amidino substituted benzimidazole and benzothiazole benzo[b]thieno-2-carboxamides exert strong antiproliferative and DNA binding properties” (Eur J Med Chem, 2017).
The source made the active and inactive calls. No cut-off for these calls is given here.

Columns and labels:
[1] = system: SW-620; assay: Antiproliferative activity against human SW620 cells after 72 hrs by MTT assay; type: functional, cell-based; details: SW-620, 72 h
[2] = system: HepG2; assay: Antiproliferative activity against human HepG2 cells after 72 hrs by MTT assay; type: functional, cell-based; details: HepG2, 72 h
[3] = system: CFPAC-1; assay: Antiproliferative activity against human CFPAC-1 cells after 72 hrs by MTT assay; type: functional, cell-based; details: CFPAC-1, 72 h
[4] = system: HeLa; assay: Antiproliferative activity against human HeLa cells after 72 hrs by MTT assay; type: functional, cell-based
[5] = system: WI-38; assay: Cytotoxicity against human WI38 cells after 72 hrs by MTT assay; type: cell-based; details: WI-38, 72 h
[6] = system: Calf thymus DNA; assay: Binding affinity to calf thymus duplex DNA assessed as change in melting temperature at drug to DNA ratio of 0.5 measured for every mins by spectrophotometric analysis; type: nucleic-acid assay; details: Bos taurus
[7] = system: Calf thymus DNA; assay: Binding affinity to calf thymus duplex DNA assessed as change in melting temperature at drug to DNA ratio of 1 measured for every mins by spectrophotometric analysis; type: nucleic-acid assay; details: Bos taurus
[8] = system: Calf thymus DNA; assay: Binding affinity to calf thymus duplex DNA assessed as hypochromic effect up to drug to DNA ratio of 1 by UV-visible spectroscopic method; type: nucleic-acid assay; details: Bos taurus
[9] = target: T1, DNA topoisomerase 1 (Homo sapiens) (UniProt P11387); assay: Inhibition of human topoisomerase-1 assessed as increase in accumulation of supercoiled pUC19 DNA at 1 to 50 uM by ethidium bromide staining based agarose gel electrophoresis
T1 sequence (whole entry): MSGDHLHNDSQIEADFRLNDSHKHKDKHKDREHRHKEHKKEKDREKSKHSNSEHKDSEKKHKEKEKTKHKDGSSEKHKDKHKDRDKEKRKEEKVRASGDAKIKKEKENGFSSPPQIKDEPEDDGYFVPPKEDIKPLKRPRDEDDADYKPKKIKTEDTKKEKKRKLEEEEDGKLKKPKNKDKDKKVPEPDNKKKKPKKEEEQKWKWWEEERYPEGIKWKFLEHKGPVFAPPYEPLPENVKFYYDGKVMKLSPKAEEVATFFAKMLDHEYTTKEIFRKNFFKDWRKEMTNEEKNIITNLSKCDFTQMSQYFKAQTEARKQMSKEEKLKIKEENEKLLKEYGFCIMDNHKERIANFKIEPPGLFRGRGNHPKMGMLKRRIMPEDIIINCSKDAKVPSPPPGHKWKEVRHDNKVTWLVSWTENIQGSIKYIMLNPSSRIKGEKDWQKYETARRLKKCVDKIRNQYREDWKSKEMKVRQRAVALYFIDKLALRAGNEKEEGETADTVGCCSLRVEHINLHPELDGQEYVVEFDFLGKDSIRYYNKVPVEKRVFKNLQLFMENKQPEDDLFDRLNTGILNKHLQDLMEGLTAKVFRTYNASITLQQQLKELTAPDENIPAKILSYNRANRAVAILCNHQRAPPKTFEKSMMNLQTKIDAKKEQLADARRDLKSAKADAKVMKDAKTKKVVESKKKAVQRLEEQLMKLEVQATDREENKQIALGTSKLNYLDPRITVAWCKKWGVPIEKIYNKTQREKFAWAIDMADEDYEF

[10] = target: T1, DNA topoisomerase 1 (Homo sapiens); assay: Inhibition of human topoisomerase-1 assessed as increase in accumulation of supercoiled pUC19 DNA at 1 to 50 uM in absence of ethidium bromide staining by agarose gel electrophoresis
[11] = target: T1, DNA topoisomerase 1 (Homo sapiens); assay: Poison activity at human topoisomerase-1 assessed as increase in relaxation of supercoiled pUC19 DNA at 1 to 50 uM by ethidium bromide staining based agarose gel electrophoresis
[12] = Drug uptake in nucleus of human 786-O cells at 10 uM after 4 hrs by propidium iodide staining-based fluorescence microscopic analysis; type: ADME, subcellular; details: 786-0, 4 h
[13] = system: Calf thymus DNA; assay: Binding affinity to calf thymus duplex DNA assessed as bathochromic shift at drug to DNA ratio of 1 to 8 by UV-visible spectroscopic method; type: nucleic-acid assay; details: Bos taurus
[14] = system: Calf thymus DNA; assay: Binding affinity to calf thymus duplex DNA by CD spectrum analysis; type: nucleic-acid assay; details: Bos taurus
[15] = target: T1, DNA topoisomerase 1 (Homo sapiens); assay: Poison activity at human topoisomerase-1 assessed as increase in relaxation of supercoiled pUC19 DNA at 50 uM by ethidium bromide staining based agarose gel electrophoresis
[16] = system: Calf thymus DNA; assay: Binding affinity to calf thymus duplex DNA assessed as hyperchromic effect at drug to DNA ratio of 1 to 8 by UV-visible spectroscopic method; type: nucleic-acid assay; details: Bos taurus
[17] = system: Calf thymus DNA; assay: Binding affinity to calf thymus duplex DNA assessed as change in melting temperature at drug to DNA ratio of 0.25 measured for every mins by spectrophotometric analysis; type: nucleic-acid assay; details: Bos taurus
[18] = Binding affinity to AT-rich site of 3'-end radiolabelled 265 bp pBS DNA at 0.01 to 10 uM after 15 mins by DNase I footprinting assay
[19] = system: Calf thymus DNA; assay: Binding affinity to calf thymus duplex DNA assessed as hypochromic effect up to drug to DNA ratio of 8 by UV-visible spectroscopic method; type: nucleic-acid assay; details: Bos taurus
[20] = system: Calf thymus DNA; assay: Binding affinity to calf thymus duplex DNA assessed as bathochromic shift up to drug to DNA ratio of 8 by UV-visible spectroscopic method; type: nucleic-acid assay; details: Bos taurus
[21] = system: Calf thymus DNA; assay: Binding affinity to calf thymus duplex DNA assessed as hyperchromic effect up to drug to DNA ratio of 8 by UV-visible spectroscopic method; type: nucleic-acid assay; details: Bos taurus

Work on `O=C(Nc1nc2ccc(C3=NCCN3)cc2s1)c1sc2cc([N+](=O)[O-])ccc2c1Cl` yielded an IC50 [1] of 69.1 µM, an IC50 [2] of 6.43 µM and an IC50 [3] of 6.81 µM. The IC50 [4] was 5.58 µM, the IC50 [5] was > 100 µM and the ΔTm [6] was -0.8 °C. It also gave a ΔTm [7] of 0.8 °C.
`O=C(Nc1nc2ccc([N+](=O)[O-])cc2[nH]1)c1sc2cc(C3=NCCN3)ccc2c1Cl` gave an IC50 [1] of 6.18 µM, an IC50 [2] of 2.23 µM and an IC50 [3] of 6.93 µM. It also gave an IC50 [4] of 2.61 µM, an IC50 [5] of 4.06 µM and a ΔTm [6] of 2.4 °C. For the same molecule, the ΔTm [7] was 2.4 °C, the Activity [8] was “Active” and the inhibition [9] was “Active”. For the same molecule, the inhibition [10] was “Active” and the Activity [11] was “inactive”.
`O=C(Nc1nc2ccc(C3=NCCN3)cc2s1)c1sc2cc(C3=NCCN3)ccc2c1Cl` showed an IC50 [1] of 82 µM, an IC50 [2] of 95.2 µM and an IC50 [3] of 61.3 µM. For the same molecule, the IC50 [4] was 49.1 µM, the IC50 [5] was 86.5 µM and the ΔTm [6] was 1 °C. The ΔTm [7] was 1.5 °C.
For `O=C(Nc1nc2ccc(C3=NCCN3)cc2s1)c1sc2ccccc2c1Cl`, the IC50 [1] was 4.44 µM, the IC50 [2] was 4.51 µM and the IC50 [3] was 4.18 µM. For the same molecule, the IC50 [4] was 4.09 µM, the IC50 [5] was 5.06 µM and the ΔTm [6] was -0.2 °C. It also gave a ΔTm [7] of -1.7 °C.
With `Cl.O=C(Nc1nc2ccc(C3=NCCN3)cc2[nH]1)c1sc2ccccc2c1Cl` the IC50 [1] was 10.3 µM, the IC50 [2] was 5.41 µM and the IC50 [3] was 20.7 µM. For the same molecule, the IC50 [4] was 3.89 µM, the IC50 [5] was 9.94 µM and the Drug uptake [12] was “Active”. The ΔTm [6] was 1.9 °C, the ΔTm [7] was 3.9 °C and the Activity [8] was “Active”. For the same molecule, the Activity [13] was “Active”, the Activity [14] was “Dose-dependent effect” and the Activity [15] was “inactive”. For the same molecule, the Activity [16] was “Active”.
In the case of `Cl.Cl.O=C(Nc1nc2ccc(C3=NCCN3)cc2[nH]1)c1sc2cc(C3=NCCN3)ccc2c1Cl`, the IC50 [1] is reported as > 100 µM, the IC50 [2] is reported as > 100 µM and the IC50 [3] is reported as > 100 µM. For the same molecule, the IC50 [4] was > 100 µM, the IC50 [5] was 56.3 µM and the Drug uptake [12] was “Active”. The ΔTm [17] was 14.6 °C, the ΔTm [6] was 16.6 °C and the Activity [8] was “Active”. The Activity [13] was “Active”, the inhibition [9] was “Active” and the Activity [18] was “Active”. The Activity [16] was “Active”, the inhibition [10] was “Active” and the Activity [11] was “inactive”.
`O=C(Nc1nc2ccccc2s1)c1sc2cc(C3=NCCN3)ccc2c1Cl` showed an IC50 [1] of 7.05 µM, an IC50 [2] of 14.2 µM and an IC50 [3] of 5.04 µM. For the same molecule, the IC50 [4] was 1.16 µM, the IC50 [5] was 4.24 µM and the inhibition [9] was “inactive”. The Activity [14] was “Dose-dependent effect”, the Activity [19] was “Active” and the Activity [20] was “inactive”. The Activity [11] was “inactive” and the Activity [21] was “inactive”.
Molecule `Cl.O=C(Nc1nc2ccccc2[nH]1)c1sc2cc(C3=NCCN3)ccc2c1Cl` has an IC50 [1] of 5.49 µM, an IC50 [2] of 2.47 µM and an IC50 [3] of 4.84 µM. For the same molecule, the IC50 [4] was 2.31 µM, the IC50 [5] was 2.97 µM and the Drug uptake [12] was “Active”. For the same molecule, the ΔTm [6] was 3.7 °C, the ΔTm [7] was 6.3 °C and the Activity [8] was “Active”. The Activity [13] was “Active”, the inhibition [9] was “Active” and the Activity [16] was “Active”. The inhibition [10] was “Active” and the Activity [11] was “inactive”.
